Experimental data as given in US20240285589A1, “TREATMENT USING AN ANTIVIRAL COMPOUND AND NITAZOXANIDE” (priority 2021, published 2024).

Key:
Type in all cases: in vivo, human
[1] = test system: persistent Herpes 4 and 6 infections; assay: Case Study 3: late-middle-aged person with Parkinson's disease symptoms and depression, perfusion SPECT; conditions: valacyclovir 1000 mg in the morning and 2000 mg at night orally; after three months
Source text: FIGS. 1A-1B show perfusion SPECT scan from Case Study 3. […] Scale illustrates levels of perfusion with normal perfusion at the central light grey and decreased perfusion illustrated by progressively darker shades of grey.
A late-middle-aged person presented for evaluation of Parkinson's disease and depression. They had been diagnosed with Parkinson's disease by a neurologist based on clinical signs of tremor and bradykinesia. No neuroimaging had been done. […] A single-photon emission computed tomography (SPECT) brain perfusion scan and a dopamine transporter SPECT scan (DaTscan) were ordered. […] The patient was started on antiviral therapy with valacyclovir at 1000 mg two times per day orally. The dose was increased to 1000 mg orally in the morning and 2000 mg orally at night. […] A repeat perfusion SPECT brain scan was performed (FIG. 1B).

[2] = test system: persistent Herpes 4 and 6 infections; assay: Case Study 2: adult with multiple symptoms of VIFD (CFS, fibromyalgia, pain)
Source text: An adult presented with multiple symptoms of VIFD across multiple systems. They experienced fatigue, brain fog, and unrefreshing sleep consistent with CFS. They experienced muscle and joint pain with trigger point pain and exaggerated reactions to pain consistent with fibromyalgia. They experienced pelvic and vaginal pain, headaches, depression, anxiety, sore throat, painful lymph nodes, numbness, and generalized pain. The symptoms involved the central nervous system, the genitourinary system, the gastrointestinal system, the immune system, the musculoskeletal system and the peripheral nervous system. […] The dose of valacyclovir was increased to 2000 mg two times per day orally. […] NTZ was then added at 500 mg two times per day orally.

[3] = test system: persistent Herpes 4 and Herpes 6 infections; assay: Case Study 5: person with severe fatigue
Protocol: An active person had struggled with depression and obsessive-compulsive disorder in the past, but these problems were well-controlled with medications. They actively engaged in daily exercising, including skiing, bicycle riding, and vigorous walking. Suddenly, they developed severe fatigue. […] The patient was started on valacyclovir at a dose of 1000 mg two times per day orally. […] Then they were switched to famciclovir, titrating from 500 mg two times per day to 1000 mg two times per day orally. […] Within two months, the patient noted less fatigue.

[4] = test system: Epstein-Barr virus and Herpes 1 virus; assay: Case Study 6: person with severe depression, IBS, brain fog, fatigue, headaches, SPECT; conditions: valacyclovir 1000 mg two times per day orally; after three months
Source text: Scale illustrates levels of perfusion in a different manner from FIG. 1. The dark grey central portion of the scale illustrates statistically normal perfusion in a given area relative to a normative database. Areas of progressively lighter grey to white illustrate areas which are 2 standard deviation (SD), 3 SD, and 4 SD below the mean of the normative database, respectively.
A person presented with a history of depression since their teen years. They were severely depressed upon presentation (Quick Inventory of Depressive Symptomatology scale 26/27) and spent most of their time in their bedroom in the basement of their parent's house. They had withdrawn from college and had never held a full-time job. Their condition was complicated by irritable bowel syndrome, brain fog, pervasive fatigue, and headaches. […] The patient also underwent a functional brain scan (single photon emission computed tomography—SPECT). […] The patient was started on the antiviral valacyclovir at 1000 mg two times per day orally. […] NTZ was added at a dose of 500 mg two times per day orally. After one month, the dose of NTZ was increased to 1000 mg two times per day orally.

[5] = test system: herpes 4 and 6 as persistent infections; assay: Case Study 1: adult with CFS, anxiety and irritable bowel syndrome; conditions: valacyclovir 1000 mg two times per day orally, alone
Protocol: Antiviral therapy with valacyclovir at 1000 mg two times per day orally was begun. […] NTZ was added at 500 mg two times per day orally to the regimen.

[6] = test system: persistent Herpes 1 and Herpes 4 infections; assay: Case Study 4: person with memory problems, dementia consistent with Alzheimer's disease; conditions: after six months
Protocol: A person presented for evaluation of memory problems. Cognitive testing was consistent with dementia. A SPECT functional brain scan was performed. The results were consistent with Alzheimer's disease. […] The patient was started on antiviral therapy with valacyclovir 1000 mg two times per day orally. The valacyclovir was stopped and famciclovir was started at 500 mg two times per day orally. After one month, the famciclovir was increased to 1000 mg two times per day orally. […] was added to their regimen at a dose of 500 mg two times per day orally. […] Family members were thrilled with the improvement.

Structure (SMILES): CC(C)[C@H](N)C(=O)OCCOCn1cnc2c(=O)[nH]c(N)nc21 [valacyclovir]
- depression symptoms [1]: marked improvement
- energy and motivation [1]: improved energy and motivation
- tremor and bradykinesia [1]: continued to experience tremor and bradykinesia
- symptoms ([2]; valacyclovir 1000 mg two times per day orally, over three months): minor improvement
- symptoms ([2]; valacyclovir increased to 2000 mg two times per day orally): slight additional benefit
- symptoms of severe fatigue ([3]; valacyclovir 1000 mg bid orally, after four months increased to 2000 mg two times per day): did not improve
- clarity of thinking [4]: could think more clearly
- depression [4]: somewhat less depressed
- fatigue [4]: somewhat less fatigued
- improvement in symptoms [4]: roughly 20%
- brain fog, anxiety, bowel movements [5]: still struggled with brain fog, anxiety, and frequent bowel movements
- fatigue [5]: modest improvement in fatigue
- need to nap on a daily basis [5]: no longer needed to nap on a daily basis

Structure (SMILES): CC(C)[C@H](N)C(=O)OCC(CO)OCn1cnc2c(=O)nc(N)[nH]c21 (some centres unmarked) [valganciclovir]
- symptoms of severe fatigue ([3]; valganciclovir titrated from 450 mg to 900 mg two times per day, after four months): without improvement

Structure (SMILES): CC(=O)OCC(CCn1cnc2cnc(N)nc21)COC(C)=O [famciclovir]
- memory function as reflected by scores on cognitive testing ([6]; famciclovir 500 mg then 1000 mg two times per day orally): modest improvement
- daily memory function ([6]; famciclovir 1000 mg two times per day orally): struggled still with daily memory function
- symptoms of severe fatigue ([3]; famciclovir titrated from 500 mg to 1000 mg two times per day orally, after three months): no improvement
